Experiments:
[1] = Quantum yield measurements versus Acridine Yellow in EtOH; assay type: physicochemical; details: for φ (quantum yield): MK library, Table 5, excitation 460 nm; for φ (%): MKAC compound library, quantum yield
Outline: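 Emission areas integrated over 510–700 nm were compared with Acridine Yellow in ethanol (Φ=0.47), all excited at 460 nm. The comparative equation was normalized to excitation-wavelength absorbance and solvent refractive index.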

[2] = Absorbance and fluorescence emission spectra (SpectraMax M2); assay type: physicochemical; details: for λmax Absorp. / λmax Emission: MK library, Table 5; for λmax Abs. (nm) / λmax Em. (nm): MKAC compound library; for λmax Abs. (nm): absorbance maximum; for λmax Em. (nm): fluorescence emission maximum
Outline: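 Spectroscopic data, including quantum yields, were recorded with a SpectraMax M2 instrument and analysed in GraphPrism.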

Row | Structure (SMILES) | φ (quantum yield) [1] [%] | λmax Absorp. [2] [nm] | λmax Emission [2] [nm] | φ (%) [1] [%] | λmax Abs. (nm) [2] [nm] | λmax Em. (nm) [2] [nm]
1 | Nc1ccc(C2=C3C=CC(N4CCCC4)=[N+]3[B-](F)(F)n3c2ccc3-n2cc(CC3CCCCC3)nn2)cc1 [MK215-8] | 0.56 | 470 | 574 |  |  | 
2 | CN(Cc1ccccc1)Cc1cn(-c2ccc3n2[B-](F)(F)[N+]2=C(N4CCCC4)C=CC2=C3c2ccc(N)cc2)nn1 [MK215-18] | 0.24 | 471 | 583 |  |  | 
3 | Nc1ccc(C2=C3C=CC(N4CCCC4)=[N+]3[B-](F)(F)n3c2ccc3-n2cc(CCc3ccccc3)nn2)cc1 [MK215-19] | 0.22 | 471 | 578 |  |  | 
4 | CC(C)Cc1cn(-c2ccc3n2[B-](F)(F)[N+]2=C(N4CCCC4)C=CC2=C3c2ccc(N)cc2)nn1 [MK215-43] | 0.33 | 471 | 571 |  |  | 
5 | CCCc1cn(-c2ccc3n2[B-](F)(F)[N+]2=C(N4CCCC4)C=CC2=C3c2ccc(N)cc2)nn1 [MK215-48] | 0.29 | 470 | 575 |  |  | 
6 | CCCCCC(O)c1cn(-c2ccc3n2[B-](F)(F)[N+]2=C(N4CCCC4)C=CC2=C3c2ccc(N)cc2)nn1 (stereo not drawn) [MK215-69] | 0.33 | 470 | 580 |  |  | 
7 | Nc1ccc(C2=C3C=CC(N4CCCC4)=[N+]3[B-](F)(F)n3c2ccc3-n2cc(CO)nn2)cc1 [MK215-70] | 0.22 | 471 | 595 |  |  | 
8 | CCCC(C)c1cn(-c2ccc3n2[B-](F)(F)[N+]2=C(NCc4cc(F)cc(F)c4)C=CC2=C3c2ccc(N)cc2)nn1 (stereo not drawn) [MK412-3] | 0.63 | 476 | 562 |  |  | 
9 | Nc1ccc(C2=C3C=CC(NCc4cc(F)cc(F)c4)=[N+]3[B-](F)(F)n3c2ccc3-n2cc(C3CC3)nn2)cc1 [MK412-4] | 0.67 | 475 | 562 |  |  | 
10 | Nc1ccc(C2=C3C=CC(NCc4cc(F)cc(F)c4)=[N+]3[B-](F)(F)n3c2ccc3-n2cc(C3CCCC3)nn2)cc1 [MK412-5] | 0.68 | 476 | 567 |  |  | 
11 | Nc1ccc(C2=C3C=CC(NCc4cc(F)cc(F)c4)=[N+]3[B-](F)(F)n3c2ccc3-n2cc(CC3CCCCC3)nn2)cc1 [MK412-8] | 0.56 | 476 | 563 |  |  | 
12 | CN(Cc1ccccc1)Cc1cn(-c2ccc3n2[B-](F)(F)[N+]2=C(NCc4cc(F)cc(F)c4)C=CC2=C3c2ccc(N)cc2)nn1 [MK412-18] | 1.02 | 473 | 563 |  |  | 
13 | Nc1ccc(C2=C3C=CC(NCc4cc(F)cc(F)c4)=[N+]3[B-](F)(F)n3c2ccc3-n2cc(CCc3ccccc3)nn2)cc1 [MK412-19] | 0.92 | 475 | 564 |  |  | 
14 | CC(C)Cc1cn(-c2ccc3n2[B-](F)(F)[N+]2=C(NCc4cc(F)cc(F)c4)C=CC2=C3c2ccc(N)cc2)nn1 [MK412-43] | 0.86 | 476 | 564 |  |  | 
15 | CCCc1cn(-c2ccc3n2[B-](F)(F)[N+]2=C(NCc4cc(F)cc(F)c4)C=CC2=C3c2ccc(N)cc2)nn1 [MK412-48] | 1.55 | 474 | 563 |  |  | 
16 | CCCCCC(O)c1cn(-c2ccc3n2[B-](F)(F)[N+]2=C(NCc4cc(F)cc(F)c4)C=CC2=C3c2ccc(N)cc2)nn1 (stereo not drawn) [MK412-69] | 1.98 | 476 | 563 |  |  | 
17 | Nc1ccc(C2=C3C=CC(NCc4cc(F)cc(F)c4)=[N+]3[B-](F)(F)n3c2ccc3-n2cc(CO)nn2)cc1 [MK412-70] | 1.89 | 470 | 562 |  |  | 
18 | CCCC(C)c1cn(-c2ccc3n2[B-](F)(F)[N+]2=C(NCc4ccccc4C)C=CC2=C3c2ccc(NC(C)=O)cc2)nn1 (stereo not drawn) [MKA101-3] |  |  |  | 21.57 | 464 | 562

Row | Structure (SMILES) | φ (quantum yield) [1] [%] | λmax Absorp. [2] [nm] | λmax Emission [2] [nm] | φ (%) [1] [%] | λmax Abs. (nm) [2] [nm] | λmax Em. (nm) [2] [nm]
19 | CCCC(C)c1cn(-c2ccc3n2[B-](F)(F)[N+]2=C(N4CC(C)OC(C)C4)C=CC2=C3c2ccc(NC(C)=O)cc2)nn1 (stereo not drawn) [MKAC20-3] |  |  |  | 2.40 | 466 | 583
20 | CC(=O)Nc1ccc(C2=C3C=CC(N4CC(C)OC(C)C4)=[N+]3[B-](F)(F)n3c2ccc3-n2cc(C3CC3)nn2)cc1 (stereo not drawn) [MKAC20-4] |  |  |  | 3.64 | 466 | 585
21 | CC(=O)Nc1ccc(C2=C3C=CC(N4CC(C)OC(C)C4)=[N+]3[B-](F)(F)n3c2ccc3-n2cc(C3CCCC3)nn2)cc1 (stereo not drawn) [MKAC20-5] |  |  |  | 3.47 | 467 | 580
22 | CC(=O)Nc1ccc(C2=C3C=CC(N4CC(C)OC(C)C4)=[N+]3[B-](F)(F)n3c2ccc3-n2cc(CC3CCCCC3)nn2)cc1 (stereo not drawn) [MKAC20-8] |  |  |  | 4.98 | 466 | 583
23 | CC(=O)Nc1ccc(C2=C3C=CC(N4CC(C)OC(C)C4)=[N+]3[B-](F)(F)n3c2ccc3-n2cc(CN(C)Cc3ccccc3)nn2)cc1 (stereo not drawn) [MKAC20-18] |  |  |  | 2.13 | 467 | 583
24 | CC(=O)Nc1ccc(C2=C3C=CC(N4CC(C)OC(C)C4)=[N+]3[B-](F)(F)n3c2ccc3-n2cc(CCc3ccccc3)nn2)cc1 (stereo not drawn) [MKAC20-19] |  |  |  | 3.12 | 467 | 579
25 | CC(=O)Nc1ccc(C2=C3C=CC(N4CC(C)OC(C)C4)=[N+]3[B-](F)(F)n3c2ccc3-n2cc(CC(C)C)nn2)cc1 (stereo not drawn) [MKAC20-43] |  |  |  | 1.55 | 467 | 586
26 | CCCc1cn(-c2ccc3n2[B-](F)(F)[N+]2=C(N4CC(C)OC(C)C4)C=CC2=C3c2ccc(NC(C)=O)cc2)nn1 (stereo not drawn) [MKAC20-48] |  |  |  | 2.93 | 467 | 581
27 | CCCCCC(O)c1cn(-c2ccc3n2[B-](F)(F)[N+]2=C(N4CC(C)OC(C)C4)C=CC2=C3c2ccc(NC(C)=O)cc2)nn1 (stereo not drawn) [MKAC20-69] |  |  |  | 2.23 | 469 | 590
28 | CC(=O)Nc1ccc(C2=C3C=CC(N4CC(C)OC(C)C4)=[N+]3[B-](F)(F)n3c2ccc3-n2cc(CO)nn2)cc1 (stereo not drawn) [MKAC20-70] |  |  |  | 1.33 | 467 | 586
29 | CCCC(C)c1cn(-c2ccc3n2[B-](F)(F)[N+]2=C(N4CCc5ccccc5C4)C=CC2=C3c2ccc(NC(C)=O)cc2)nn1 (stereo not drawn) [MKAC66-3] |  |  |  | 2.40 | 469 | 583
30 | CC(=O)Nc1ccc(C2=C3C=CC(N4CCc5ccccc5C4)=[N+]3[B-](F)(F)n3c2ccc3-n2cc(C3CC3)nn2)cc1 [MKAC66-4] |  |  |  | 2.56 | 469 | 580
31 | CC(=O)Nc1ccc(C2=C3C=CC(N4CCc5ccccc5C4)=[N+]3[B-](F)(F)n3c2ccc3-n2cc(C3CCCC3)nn2)cc1 [MKAC66-5] |  |  |  | 1.96 | 470 | 583
32 | CC(=O)Nc1ccc(C2=C3C=CC(N4CCc5ccccc5C4)=[N+]3[B-](F)(F)n3c2ccc3-n2cc(CC3CCCCC3)nn2)cc1 [MKAC66-8] |  |  |  | 2.20 | 469 | 578
33 | CC(=O)Nc1ccc(C2=C3C=CC(N4CCc5ccccc5C4)=[N+]3[B-](F)(F)n3c2ccc3-n2cc(CN(C)Cc3ccccc3)nn2)cc1 [MKAC66-18] |  |  |  | 1.56 | 468 | 585
34 | CC(=O)Nc1ccc(C2=C3C=CC(N4CCc5ccccc5C4)=[N+]3[B-](F)(F)n3c2ccc3-n2cc(CCc3ccccc3)nn2)cc1 [MKAC66-19] |  |  |  | 1.76 | 470 | 580
35 | CC(=O)Nc1ccc(C2=C3C=CC(N4CCc5ccccc5C4)=[N+]3[B-](F)(F)n3c2ccc3-n2cc(CC(C)C)nn2)cc1 [MKAC66-43] |  |  |  | 1.92 | 469 | 581
36 | CCCc1cn(-c2ccc3n2[B-](F)(F)[N+]2=C(N4CCc5ccccc5C4)C=CC2=C3c2ccc(NC(C)=O)cc2)nn1 [MKAC66-48] |  |  |  | 2.14 | 469 | 582
